Reference: patent US9896479B2, “Functionalized naphthalene fluorophores” (Kay M. Brummond, priority 2012, dated 2018)
Where two headings read alike, the source gives them in different places.

Key:
[1] = Absorption spectra (absorption maxima) of dyes in organic solvents; format: physicochemical
Source text: (§1) All commercially available compounds were purchased from Aldrich Chemical Co., GFS Chemicals, Strem Chemicals, Acros Organics, Alfa Aesar, and Advanced Chemtech and used as received, except for p-toluenesulfonyl hydrazide, which was recrystallized from methanol. Amines were purchased from Aldrich Chemical Co. as purified by redistillation and used as received. Tetrahydrofuran (THF), diethyl ether (Et2O), and dichloromethane (CH2Cl2) were purified by passing through alumina using the Sol-Tek ST-002 solvent purification system. Acetonitrile (MeCN) and toluene were freshly distilled from CaH2 prior to use. Benzene was freshly distilled from sodium/benzophenone prior to use Anhydrous N,N-dimethylformamide (DMF), 1,2-dichloroethane (DCE), and 1,4-dioxane were purchased and used as received from Aldrich Chemical Co. Purification of the compounds by flash column chromatography was performed using silica gel (32-63 μm particle size, 60 Å pore size) purchased from Silicycle, or by using a Biotage Horizon flash purification system with either Biotage SNAP KP-SIL silica cartridges, or Teledyne ISCO RediSep Rf normal phase disposable flash columns (40-60 micron). TLC analyses were performed on EMD Chemicals Silica Gel 60 F254 glass plates (250 μm thickness). ^1H NMR and ^13C NMR spectra were recorded on Bruker Avance 300 MHz, 500 MHz, or 600 MHz spectrometers. Spectra were referenced to residual chloroform (7.27 ppm, ^1H, 77.0 ppm, ^13C) or 1,2-dichlorobenzene (6.93 ppm, ^1H, 127.19 ppm, ^13C). Chemical shifts are reported in ppm, multiplicities are indicated by s (singlet), d (doublet), t (triplet), q (quartet), p (pentet), and m (multiplet). Coupling constants, J, are reported in hertz (Hz). All NMR spectra were obtained at room temperature unless otherwise specified. IR spectra were obtained using a Nicolet Avatar E.S.P. 360 FT-IR. EI mass spectroscopy was performed on a Waters Micromass GCT high resolution mass spectrometer. ES mass spectroscopy was performed on a Waters Q-TOF Ultima API, Micromass UK Limited high resolution mass spectrometer. GC mass spectrometry was performed on a Shimadzu GCMS-17A/QP5050A spectrometer. All microwave-mediated reactions were carried out using a Biotage Initiator™ Exp microwave synthesizer. The microwave parameters were set to variable power, constant temperature, with the fixed hold time set to on. The microwave reactions were carried out in 0.2-0.5 mL, 0.5-2 mL, 2-5 mL, or 10-20 mL Biotage microwave vials. […] Absorption and fluorescence spectra were recorded on Lambda 9 spectrophotometer (Perkin Elmer) and FluoroMax-3 spectrofluorometer (Jobin Yvon, Horiba), respectively. Fluorescence quantum yields were determined by taking Prodan in DMSO (quantum yield, QY=91%) as a reference. The quantum yield values were corrected for the solvent refractive index. For spectroscopic measurements, 10^−5 M solutions of dyes in 10 mm quartz-cuvettes were used (excitation wavelength was 334 nm; slits open to 2 nm).

[2] = Fluorescence quantum yield vs Prodan in DMSO as reference; format: physicochemical; conditions: for QY (fluorescence quantum yield vs Prodan in DMSO (91%)): excitation 334 nm, 10^-5 M
Source text: as §1

[3] = cited from earlier work
[4] = Prodan in DMSO taken as reference; cited from earlier work

λabs (maximum absorption) ([1]; 1,4-Dioxane): 346 nm
λabs (maximum absorption) ([1]; Acetonitrile): 350 nm
λabs (maximum absorption) ([1]; CH2Cl2): 355 nm
λabs (maximum absorption) ([1]; DMSO): 357 nm
λabs (maximum absorption) ([1]; EtOH): 362 nm
λabs (maximum absorption) ([1]; THF): 348 nm
λabs (maximum absorption) ([1]; Toluene): 346 nm
λabs (maximum absorption) ([1]; n-Hexane): 340 nm
QY (fluorescence quantum yield vs Prodan in DMSO (91%)) ([2]; 1,4-Dioxane): 75%
QY (fluorescence quantum yield vs Prodan in DMSO (91%)) ([2]; Acetonitrile): 80%
QY (fluorescence quantum yield vs Prodan in DMSO (91%)) ([2]; CH2Cl2): 98%
QY (fluorescence quantum yield vs Prodan in DMSO (91%)) ([2]; DMSO): 91%
QY (fluorescence quantum yield vs Prodan in DMSO (91%)) ([2]; EtOH): 71%
QY (fluorescence quantum yield vs Prodan in DMSO (91%)) ([2]; THF): 78%
QY (fluorescence quantum yield vs Prodan in DMSO (91%)) ([2]; Toluene): 56%
QY (fluorescence quantum yield) ([2]; n-Hexane): 2.0%
SMILES: CCC(=O)c1ccc2cc(N(C)C)ccc2c1 [Prodan, reference compound]
Bathochromic shift ([3]; cyclohexane to water (background)): 124 nm
fluorescent emission ([3]; in cyclohexane (background)): 410 nm
fluorescent emission ([3]; in water (background)): 534 nm
quantum yield, QY (reference value) [4]: 91%
